Data: US20200270588A1, “GLUCOSYL TRANSFERASE POLYPEPTIDES AND METHODS OF USE” (Syngenta Participations AG, priority 2017, published 2020)
“And” between values parts separate entries of the source, which are not always exact repeats. Equal values may be shown once.

Legend:
[1] = tested on: SEQ ID 47, mutant bx-type glucosyl transferase; assay: LC/MS glucosyl transferase assay (glucoside peak area), purified enzyme; assay type: biochemical; details: about 60 min, ~15 pmol enzyme, nd = not detectable
Procedure: In an alternative method for assaying the various enzymes, the test glucosyl transferase enzyme is reacted with substrates exactly as above except that the assay is stopped by adding an equal volume of acetonitrile. Alternatively 50 or 100 μl samples from assay reactions are added to 500 μl ethyl acetate to stop the reaction. In this case samples are then vortexed and 400 μl of the ethyl acetate partition removed, dried down, and resuspended in 100 μl 80:20 acetonitrile/water. The formation of product gluco side and/or disappearance of substrate test herbicide is then monitored directly by LC/MS. Samples are analyzed by LC-MS using an Agilent 1290 liquid chromatography system and Thermo Q-Exactive mass spectrometer. The chromatography is achieved on a Waters Acquity C18 BEH (50×2.1 mm) 1.7 μm particle size column, using a 6 minute gradient run of Water (0.2% formic acid) and Acetonitrile. The Q-Exactive is operated in positive ionisation electrospray mode, using Full scan-AIF mode, at 35,000 resolution, between 100-800 m/z. All analytes are identified from the full scan data to within at least 5 ppm accuracy of their predicted pseudo-molecular ion [M+H]^+ m/z value. In order to obtain quantitative data standard curves are run using herbicides and herbicide glucosides synthesized as standards. Where these synthetic glucosides were not available the LC/MS assay could only be used to provide relative data.
DNA sequences, optimized for E. coli codon usage, were cloned, expressed and the various proteins purified and assayed as described in the foregoing examples. Using the UDP assay (as described in examples 1, 3 and 6) the data obtained from the Zea mays bx8 w/t protein and its variants was noisy due to relatively high background rates in DMSO reagent blanks. The values reported in the table 15 were thus monitored by LC/MS as described in example 1.

[2] = tested on: transgenic tobacco plants expressing zmBX9 (SEQ ID No 1); assay: Glass house spray test on tobacco, percent damage; assay type: in vivo; details: for percent damage: 14 DAT, tobacco expressing SEQ ID NO 1, lines 6266 and 6291, clonal plants A-E
Procedure: In the present example, Zea mays BX8 or BX9 or orthologues of BX8/9, for example SEQ ID Nos. 1-59 and various herbicide-active mutations and combinations of mutations thereof (e.g. as listed in Tables 1-9) are expressed in transgenic tobacco. DNA sequences that encode these polypeptides (optimized for tobacco or, optionally, codon optimized according to a target crop such as soybean) are prepared synthetically and obtained commercially from Genewiz (South Plainfield, USA). Each sequence is designed to include a 5′ fusion with TMV omega 5′ leader (SEQ ID NO: 109). The DNA sequences are flanked at the 5′ end with XhoI and at the 3′ end with KpnI to facilitate direct cloning into a suitable binary vector for Agrobacterium-based plant transformation.
In a particular example, the expression cassette, comprising the TMV omega 5′ leader and a BX encoding gene of interest is excised using XhoI/KpnI and cloned into similarly digested pBIN 19 (Bevan, Nucl. Acids Res. (1984) behind a double enhanced 35S promoter (SEQ ID NO:110) and ahead of a NOS 3′ transcription terminator (SEQ ID NO:111) and then transformed into E. coli DH5 alpha competent cells (see FIG. 5). DNA recovered from the E. coli is used to transform Agrobacterium tumefaciens LBA4404, and the transformed bacteria are selected on media contain rifampicin and kanamycin. Tobacco tissue is subjected to Agrobacterium-mediated transformation using methods well described in the art or as described herein. For example, a master plate of Agrobacterium tumefaciens containing the BX glucosyltransferase expressing binary vector is used to inoculate 10 ml LB (L broth) containing 100 mg/l Rifampicin plus 50 mg/l Kanamycin using a single bacterial colony. This is incubated overnight at 28° C. shaking at 200 rpm. This entire overnight culture is used to inoculate a 50 ml volume of LB containing the same antibiotics. Again this is cultured overnight at 28° C. shaking at 200 rpm. The Agrobacterium cells are pelleted by centrifuging at 3000 rpm for 15 minutes and then resuspended in MS (Murashige and Skoog) medium containing 30 g/l sucrose, pH 5.9 to an OD (600 nM)=0.6. This suspension is dispensed in 25 ml aliquots into petri dishes.
Once rooted, plantlets are transferred from agar and potted into 50% peat, 50% John Innes Soil No. 3 with slow-release fertilizer in 3 inch round pots and left regularly watered to establish for 8-12d in the glass house. Glass house conditions are about 24-27° C. day; 18-21° C. night and approximately a 14h photoperiod. […]
Three transgenic populations of about forty tobacco plants and comprising, a glucosyl transferase gene encoding either zmBX8 (SEQ ID NO 2) or zmBX9 (SEQ ID NO 1) were thus produced. […] Plants were assessed for damage and scored at 7 and 14 days after treatment (DAT). […]

wild type tobacco plants = assay: Glass house spray test on tobacco, percent damage; assay type: in vivo; details: 14 DAT
Procedure: Once rooted, plantlets are transferred from agar and potted into 50% peat, 50% John Innes Soil No. 3 with slow-release fertilizer in 3 inch round pots and left regularly watered to establish for 8-12d in the glass house. Glass house conditions are about 24-27° C. day; 18-21° C. night and approximately a 14h photoperiod. Humidity is adjusted to ˜65% and light levels used are up to 2000 μmol/m^2 at bench level.
(§1) Three transgenic populations of about forty tobacco plants and comprising, a glucosyl transferase gene encoding either zmBX8 (SEQ ID NO 2) or zmBX9 (SEQ ID NO 1) were thus produced. A sub-set of about 30 plants were selected on the basis of similar size from each population for spray testing. The plants were then sprayed with 30 g/ha of Compound VI. VI was mixed in water with 0.2-0.25% X-77 surfactant and sprayed from a boom on a suitable track sprayer moving at 2 mph with the nozzle about 2 inches from the plant tops. Spray volume was 200 l/ha. Plants were assessed for damage and scored at 7 and 14 days after treatment (DAT).
(§2) In a further example, Zea mays BX8 or BX9 or orthologues of BX8/9, are altered to carry amino acid variants at various positions which increase tolerance to the alcohol and aminal PSII herbicides as described in the example above. DNA sequences that encode these polypeptides (optimized for tobacco or, optionally, codon optimized according to a target crop such as soybean) were prepared for tobacco transformation as described in example 10. […] Transgenic tobacco populations expressing SEQ ID NOs 16 and 17 were generated alongside a population expressing the parental zmBX9 sequence (SEQ ID 1). These populations were sprayed with herbicide V and VI at rates of 200 and 500 g/ha. Plants were assessed for damage and scored at 14 days after treatment (DAT). The results are depicted in Table 19 and also in FIG. 6.

[3] = tested on: transgenic tobacco plants expressing SEQ ID NO: 17; assay: Glass house spray test on tobacco, percent damage; assay type: in vivo; details: for tolerance compared with w/t and SEQ ID NO: 1 plants: 200 and 500 g/ha, 14 DAT, several events
Text: as §1, §2

SMILES | integrated peak area of beta-glucoside product [1] | tolerance ([2]; 30 g/ha, several transgenic lines) | percent damage ([2]; 500 gai/ha VI) | tolerance ([2]; high rates, best two events) | percent damage (wild type tobacco plants; 30 g/ha compound VI, plants A, B, C) | percent damage (wild type tobacco plants; 500 gai/ha VI, WT tobacco plants 1-9) | tolerance ([3]; 1 kg/ha, events 7937, 7940, 7952, 8039, 8071, 8106 expressing SEQ ID NOs 16 and 17, data not shown) | tolerance compared with w/t and SEQ ID NO: 1 plants [3] | percent damage ([2]; 500 gai/ha V) | percent damage (wild type tobacco plants; 200 gai/ha V, WT tobacco plants 1-9) | percent damage (wild type tobacco plants; 500 gai/ha V, WT tobacco plants 1-9)
CON1C(=O)N(c2cc(C(F)(F)F)ccn2)C(O)[C@@H]1C (stereo partly shown) [Compound VI] | 1.68E+05 and 1.05E+05 | demonstrate tolerance | 95% and 90% and 100% and 60% and 70% and 75% and 80% | only partial tolerance | 75% and 95% and 85% | 100% | substantially fully tolerant | much superior tolerance | – | – | –
CN1CC(O)N(c2cc(C(F)(F)F)ccn2)C1=O (stereo not shown) [Compound V] | 8.67E+05 and 6.30E+05 | – | – | – | – | – | – | much superior tolerance | 100% and 80% | 100% | 100%
